Laboratory results published in PubChem BioAssay AID1963856 (Molecular Pharmacology Branch, DTP, NCI, 2024).
pIC50: −log10 of the molar value.

Tested on: LG0567-F671-PDC KRAS tumor spheroid viability
Test: Anticancer human tumor LG0567-F671-PDC patient-derived lung adenocarcinoma cell line growth inhibition [KRAS2]
Details: spheroids with HUVEC and MSC; for pIC50: curve of first compound; for viability, T/C: stronger effect = lower value
Outline: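 Combination screen of spheroid viability in tumor-cell co-cultures with endothelial (HUVEC) and mesenchymal stem cell stroma. Each agent was tested in half-log dilutions, topping at clinical Cmax or at 10 microM without a known Cmax.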

[1] = second compound 0.1 µM, first compound 0.01 µM
[2] = second compound 0.1 µM, first compound 0.0316 µM
[3] = second compound 0.1 µM, first compound 0.1 µM
[4] = second compound 0.1 µM, first compound 0.316 µM
[5] = second compound 0.1 µM, first compound 1 µM
[6] = second compound 0.1 µM, first compound 3.16 µM
[7] = second compound 0.316 µM, first compound 0.01 µM
[8] = second compound 0.316 µM, first compound 0.0316 µM
[9] = second compound 0.316 µM, first compound 0.1 µM
[10] = second compound 0.316 µM, first compound 0.316 µM
[11] = second compound 0.316 µM, first compound 1 µM
[12] = second compound 0.316 µM, first compound 3.16 µM
[13] = second compound 1 µM, first compound 0.01 µM
[14] = second compound 1 µM, first compound 0.0316 µM
[15] = second compound 1 µM, first compound 0.1 µM
[16] = second compound 1 µM, first compound 0.316 µM
[17] = second compound 1 µM, first compound 1 µM
[18] = second compound 1 µM, first compound 3.16 µM
[19] = second compound 3.16 µM, first compound 0.01 µM
[20] = second compound 3.16 µM, first compound 0.0316 µM
[21] = second compound 3.16 µM, first compound 0.1 µM
[22] = second compound 3.16 µM, first compound 0.316 µM
[23] = second compound 3.16 µM, first compound 1 µM
[24] = second compound 3.16 µM, first compound 3.16 µM
[25] = second compound 10 µM, first compound 0.01 µM
[26] = second compound 10 µM, first compound 0.0316 µM
[27] = second compound 10 µM, first compound 0.1 µM
[28] = second compound 10 µM, first compound 0.316 µM
[29] = second compound 10 µM, first compound 1 µM
[30] = second compound 10 µM, first compound 3.16 µM
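Further: drug exposure lasted seven days after spheroids formed for three days.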
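Wherever viability, T/C is given: 100% = DMSO vehicle control viability.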

Row | SMILES | pIC50 (second compound 0.1 µM) | pIC50 (second compound 0.316 µM) | pIC50 (second compound 1 µM) | pIC50 (second compound 3.16 µM) | viability, T/C [2] [%] | viability, T/C [3] [%] | viability, T/C [4] [%] | viability, T/C [5] [%] | viability, T/C [8] [%] | viability, T/C [9] [%] | viability, T/C [10] [%] | viability, T/C [11] [%] | viability, T/C [14] [%] | viability, T/C [15] [%] | viability, T/C [16] [%] | viability, T/C [17] [%] | viability, T/C [20] [%] | viability, T/C [21] [%] | viability, T/C [22] [%] | viability, T/C [23] [%] | further results
1 | CC1COCCN1c1cc(-c2ccnn2C)c2ccnc(-c3ccn[nH]3)c2n1 (configuration not stated) + CC1OCC2(CCN(c3cnc(Sc4ccnc(N)c4Cl)c(N)n3)CC2)C1N | > 8.00 | > 8.00 | > 8.00 | > 8.00 | 41.8 | 32 | 36.3 | 41.7 | 31.8 | 24.9 | 18.5 | 21.6 | 23.4 | 19 | 15.3 | 10.2 | 16.3 | 10.9 | 7.95 | 8.32 | pIC50 (second compound 10 µM): > 8.00; viability, T/C [1]: 59.9%; viability, T/C [6]: 48.2%; viability, T/C [7]: 39%; viability, T/C [12]: 27.5%; viability, T/C [13]: 28.2%; viability, T/C [18]: 9.22%; viability, T/C [19]: 23%; viability, T/C [24]: 3.11%; viability, T/C [25]: 14.4%; viability, T/C [26]: 12%; viability, T/C [27]: 7.07%; viability, T/C [28]: 3.98%; viability, T/C [29]: 2.99%; viability, T/C [30]: 1.57%
2 | CCN1CCN(Cc2ccc(Nc3ncc(F)c(-c4cc(F)c5nc(C)n(C(C)C)c5c4)n3)nc2)CC1 + CNCc1ccccc1-c1csc(C(C)Nc2nc(C)nc3cc(OC)c(OC)cc23)c1 | 6.31 | 7.17 | 8.19 | 7.86 | 65 | 62.6 | 50.1 | 47.3 | 51.1 | 54.8 | 43.8 | 42 | 44.3 | 37.8 | 39.9 | 33.9 | 0.63 | 11.6 | 3.01 | 0.17 | pIC50 (second compound 10 µM): > 8.50; viability, T/C (second compound 0.1 µM, first compound 0.00316 µM): 78%; viability, T/C [1]: 76.3%; viability, T/C (second compound 0.316 µM, first compound 0.00316 µM): 77.2%; viability, T/C [7]: 60.5%; viability, T/C (second compound 1 µM, first compound 0.00316 µM): 52%; viability, T/C [13]: 50.5%; viability, T/C (second compound 3.16 µM, first compound 0.00316 µM): 60.6%; viability, T/C [19]: 74.2%; viability, T/C (second compound 10 µM, first compound 0.00316 µM): 0.18%; viability, T/C [25]: 0.15%; viability, T/C [26]: 0.13%; viability, T/C [27]: 0.12%; viability, T/C [28]: 0.13%; viability, T/C [29]: 0.18%
3 | CC(=O)OC12COC1CC(O)C1(C)C(=O)C(O)C3=C(C)C(OC(=O)C(O)C(NC(=O)OC(C)(C)C)c4ccccc4)CC(O)(C(OC(=O)c4ccccc4)C21)C3(C)C (configuration not stated) + C=CC(=O)N1CCN(c2nc(OCC3CCCN3C)nc3c2CCN(c2cccc4cccc(C)c24)C3)CC1CC#N | > 8.00 | > 8.00 | > 8.00 | > 8.00 | 13.2 | 16.1 | 16.5 | 19.4 | 13.9 | 15.7 | 13.8 | 16.9 | 15.4 | 15.9 | 15.3 | 16.8 | 37.1 | 25.7 | 36.4 | 33.6 | pIC50 (second compound 0.0316 µM): > 8.00; viability, T/C (second compound 0.0316 µM, first compound 0.01 µM): 18.9%; viability, T/C (second compound 0.0316 µM, first compound 0.0316 µM): 16.2%; viability, T/C (second compound 0.0316 µM, first compound 0.1 µM): 18.9%; viability, T/C (second compound 0.0316 µM, first compound 0.316 µM): 21.9%; viability, T/C (second compound 0.0316 µM, first compound 1 µM): 22.9%; viability, T/C (second compound 0.0316 µM, first compound 3.16 µM): 19.9%; viability, T/C [1]: 14.5%; viability, T/C [6]: 15.8%; viability, T/C [7]: 15.8%; viability, T/C [12]: 14.7%; viability, T/C [13]: 16.6%; viability, T/C [18]: 14.4%; viability, T/C [19]: 40.1%; viability, T/C [24]: 36.6%
4 | CC(=O)Nc1cccc(-n2c(=O)n(C3CC3)c(=O)c3c(Nc4ccc(I)cc4F)n(C)c(=O)c(C)c32)c1 | – | – | – | – | – | – | – | – | – | – | – | – | – | – | – | – | – | – | – | – | viability, T/C (compound 0.0001 µM): 80.8% [middle of 5 runs]; viability, T/C (compound 0.000316 µM): 63.3% [middle of 5 runs]; viability, T/C (compound 0.001 µM): 55.2% [middle of 5 runs]; viability, T/C (compound 0.00316 µM): 50.8% [middle of 5 runs]; viability, T/C (compound 0.01 µM): 38.5% [middle of 5 runs]; viability, T/C (compound 0.0316 µM): 15.6% [middle of 5 runs]; IC50 (curve of compound): 2.56 nM [middle of 5 runs]
5 | COc1cc2nccc(Oc3ccc(NC(=O)C4(C(=O)Nc5ccc(F)cc5)CC4)cc3)c2cc1OC + C=CC(=O)N1CCN(c2nc(=O)n(-c3c(C)ccnc3C(C)C)c3nc(-c4c(O)cccc4F)c(F)cc23)C(C)C1 | > 7.50 | > 7.50 | > 7.50 | > 7.50 | 24.2 | 20.6 | 21.3 | 18.9 | 21.5 | 19.1 | 17.1 | 14.9 | 22.3 | 23.9 | 17.6 | 17.3 | 21.8 | 23.4 | 20.3 | 16.8 | pIC50 (second compound 10 µM): > 7.50; viability, T/C [6]: 10.8%; viability, T/C (second compound 0.1 µM, first compound 10 µM): 48.9%; viability, T/C [12]: 9.77%; viability, T/C (second compound 0.316 µM, first compound 10 µM): 51.1%; viability, T/C [18]: 9.01%; viability, T/C (second compound 1 µM, first compound 10 µM): 55%; viability, T/C [24]: 8.81%; viability, T/C (second compound 3.16 µM, first compound 10 µM): 50.4%; viability, T/C [26]: 18.3%; viability, T/C [27]: 18.4%; viability, T/C [28]: 17.6%; viability, T/C [29]: 13.7%; viability, T/C [30]: 10.7%; viability, T/C (second compound 10 µM, first compound 10 µM): 29.2%
